Reference: PMC2769490 (Journal of the American Chemical Society, 2009)

Molecular target: rabbit muscle actin (Oryctolagus cuniculus, UniProt P68135)
Test: microcalorimetry
Assay type: binding

In the case of `O=C(c1ccccc1O)c1[nH]c(Cl)c(Cl)c1-n1c(C(=O)c2ccccc2O)cc(Cl)c1Cl` [compound 6, marinopyrrole A], the Kd is reported as 0.12 ± 0.2 µM.
